Paper PMC6100468 (2018)

Columns and labels:
[1] = tested on: Fc-kit1T (DNA, G4) AGGGAGGGCGCTGGGAGGAGGG; test: microscale thermophoresis; settings: 100 mM K+; 10 mM Tris-HCl pH 7.4
[2] = tested on: Fc-kit1T (DNA, G4) AGGGAGGGCGCTGGGAGGAGGG; test: FRET melting; settings: 60 mM K+; 0.2 μM DNA, 1.0 μM compound (methods text: 2 μM, 100 mM LiCl); cacodylate pH 7.4
[3] = tested on: FPu18T (DNA, G4) AGGGTGGGGAGGGTGGGG; test: FRET melting; settings: 60 mM K+; 0.2 μM DNA, 1.0 μM compound (methods text: 2 μM, 100 mM LiCl); cacodylate pH 7.4
[4] = tested on: F10T (DNA, hairpin, hexaethylene glycol (HEG) linker between nucleotides 10 and 11) TATAGCTATATATAGCTATA; test: FRET melting; settings: 60 mM K+; 0.2 μM DNA, 1.0 μM compound (methods text: 2 μM, 100 mM LiCl); cacodylate pH 7.4
[5] = tested on: F21T (DNA, G4) GGGTTAGGGTTAGGGTTAGGG; test: FRET melting; settings: 60 mM K+; 0.2 μM DNA, 1.0 μM compound (methods text: 2 μM, 100 mM LiCl); cacodylate pH 7.4

| SMILES | Kd [1] [µM] | ΔTm [2] [°C] | ΔTm [3] [°C] | ΔTm [4] [°C] | ΔTm [5] [°C] |
| --- | --- | --- | --- | --- | --- |
| COc1cc2c(cc1OC)-c1cc3ccc(OC)c(OCC(=O)N[C@@H](CCCCN)C(=O)N[C@@H](CCCNC(=N)N)C(N)=O)c3c[n+]1CC2 | 2.65 ± 0.33 |  |  |  |  |
| COc1cc2c(cc1OC)-c1cc3ccc(OC)c(OC)c3c[n+]1CC2 | 3.25 ± 0.32 |  | 11.2 ± 0.1 |  | 1.8 ± 0.2 |
| COc1cc2c(cc1OC)-c1cc3ccc(OC)c(OCC(=O)N[C@@H](Cc4ccccc4)C(=O)N[C@@H](CCCCN)C(=O)N[C@@H](CCCN=C(N)N)C(N)=O)c3c[n+]1CC2 | 6.60 ± 0.472 |  |  |  |  |
| COc1cc2c(cc1OC)-c1cc3ccc(OC)c(OCC(=O)N[C@@H](CCCNC(=N)N)C(=O)N[C@@H](CCCNC(=N)N)C(N)=O)c3c[n+]1CC2 | 1.47 ± 0.12 |  | 19.6 ± 0.9 |  | 10.6 ± 0.2 |

The remaining lines, values ahead:

| Kd [1] [µM] | ΔTm [2] [°C] | ΔTm [3] [°C] | ΔTm [4] [°C] | ΔTm [5] [°C] | SMILES |
| --- | --- | --- | --- | --- | --- |
| 11.10 ± 0.51 | 6.1 ± 0.9 | 5.0 ± 1.0 |  |  | COc1cc2c(cc1OC)-c1cc3ccc(OC)c(OCC(=O)N[C@@H](Cc4ccccc4)C(=O)NCC(=O)N[C@@H](CCCCN)C(N)=O)c3c[n+]1CC2 |
| 9.68 ± 0.57 |  |  | 0.0 ± 1.0 |  | COc1cc2c(cc1OC)-c1cc3ccc(OC)c(OCC(=O)N[C@@H](Cc4ccccc4)C(=O)N[C@@H](Cc4cnc[nH]4)C(=O)N[C@@H](CCCNC(=N)N)C(N)=O)c3c[n+]1CC2 |
| 1.41 ± 0.09 | 21.7 ± 0.8 | 23.8 ± 0.6 | 0.8 ± 0.4 | 11.0 ± 0.1 | COc1cc2c(cc1OC)-c1cc3ccc(OC)c(OCC(=O)N[C@@H](Cc4ccccc4)C(=O)N[C@@H](CCCNC(=N)N)C(N)=O)c3c[n+]1CC2 |
| 8.00 ± 0.89 |  |  |  | 0.0 ± 1.2 | COc1cc2c(cc1OC)-c1cc3ccc(OC)c(OCC(=O)N[C@@H](CCCCN)C(=O)N[C@@H](Cc4ccccc4)C(=O)N[C@@H](CCCNC(=N)N)C(N)=O)c3c[n+]1CC2 |
